The text below walks through data of patent US5032577A, “Peptidylaminodiols” (Abbott Laboratories, priority 1987, dated 1991).

Counter-ions that a name gives are not always drawn.

This assay addresses T1, human renal renin (Homo sapiens, UniProt P00797).
T1 construct: human renal renin, free from acid proteolytic activity; from tissue
T1 sequence (P00797 67-406): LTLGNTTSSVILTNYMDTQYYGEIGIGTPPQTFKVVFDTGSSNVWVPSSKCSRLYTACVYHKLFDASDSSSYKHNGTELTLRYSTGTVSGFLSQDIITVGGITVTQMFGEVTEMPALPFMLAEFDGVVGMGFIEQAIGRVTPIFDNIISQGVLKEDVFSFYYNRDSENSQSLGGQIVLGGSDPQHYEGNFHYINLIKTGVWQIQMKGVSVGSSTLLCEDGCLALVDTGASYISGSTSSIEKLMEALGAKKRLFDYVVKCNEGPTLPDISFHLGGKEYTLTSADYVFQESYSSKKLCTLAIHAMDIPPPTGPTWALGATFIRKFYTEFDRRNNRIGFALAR
Description: Inhibition of human renal renin in vitro; angiotensin I formed measured by radioimmunoassay. Format: biochemical.
The term IC50 denotes the concentration needed to halve the response being measured. A high value points to lower potency. As to `CC(C)C[C@H](NC(=O)[C@@H](N)Cc1ccccc1)C(=O)N[C@@H](CC1CCCCC1)[C@@H](O)[C@@H](O)CC(C)C` [Example 57, H-Phe-Leu Amide of 2(S)-Amino-l-cyclohexyl-3(R),4(S)-dihydroxY-6-methylheptane], the IC50 turned out to be 7.5 nM. This lies in the single-digit nanomolar range.
`CC(C)C[C@H](NC(=O)[C@H](Cc1ccccc1)NCCC#N)C(=O)N[C@@H](CC1CCCCC1)[C@@H](O)[C@@H](O)CC(C)C` [Example 58, [N-(2-Cyanoethyl)]Phe-Leu Amide of 2(S)-Amino-1-cyclohexyl-3(R),4(S)-dihydroxy-6-methylheptane] had an IC50 of 7 nM.
The molecule `CC(C)C[C@H](O)[C@H](O)[C@H](CC1CCCCC1)NC(=O)[C@H](Cc1c[nH]cn1)NC(=O)[C@H](Cc1ccccc1)NC(=O)CCNC(=O)OCc1ccccc1` [Example 61, Cbz-β-Ala-Phe-His Amide of 2(S)-Amino-l-cyclohexyl-3(R),4(S)-dihydroxy-6-methylheptane] came in with an IC50 of 0.55 nM.
Under `CC(C)C[C@H](O)[C@H](O)[C@H](CC1CCCCC1)NC(=O)[C@H](Cc1c[nH]cn1)NC(=O)[C@H](Cc1ccccc1)NC(=O)CCN` [Example 62, H-β-Ala-Phe-His Amide of 2(S)-Amino-l-cyclohexyl-3(R), 4(S)-dihydroxy-6-methylheptane Diacetic Acid Salt] stands 2 nM.
For `CC(C)C[C@H](O)[C@H](O)[C@H](CC1CCCCC1)NC(=O)[C@H](Cc1c[nH]cn1)NC(=O)[C@H](Cc1ccccc1)NC(=O)CN(C)C(=O)OCc1ccccc1` [Example 63, Cbz-Sar-phe-His Amide of 2(S)-Amino-l-cyclohexyl-3(R),4(S)-dihydroxy-6-methylheptane] the value was 0.45 nM; for `CNCC(=O)N[C@@H](Cc1ccccc1)C(=O)N[C@@H](Cc1c[nH]cn1)C(=O)N[C@@H](CC1CCCCC1)[C@@H](O)[C@@H](O)CC(C)C` [Example 64, H-Sar-Phe-His Amide of 2(S)-Amino-l-cyclohexyl-3(R),4(S)-dihydroxy-6-methylheptane Diacetic Acid Salt], 3 nM; for `CC(C)C[C@H](O)[C@H](O)[C@H](CC1CCCCC1)NC(=O)[C@H](Cc1c[nH]cn1)NC(=O)[C@H](Cc1ccccc1)NC(=O)C1CCN(C(=O)OCc2ccccc2)CC1` [Example 67, Cbz-Isonipectoyl-Phe-His Amide of 2(S)-Amino-l-cyclohexyl-3(R),4(S)-dihydroxy-6-methylheptane], 0.8 nM.
Under `CC(C)C[C@H](O)[C@H](O)[C@H](CC1CCCCC1)NC(=O)[C@H](Cc1c[nH]cn1)NC(=O)[C@H](Cc1ccccc1)NC(=O)C1CCNCC1` [Example 68, H-Isonipectoyl-Phe-His Amide of 2(S)-Amino-l-cyclohexyl-3(R),4(S)-dihydroxy-6-methylheptane Diacetic Acid Salt] stands 1 nM; under `CC(C)C[C@H](O)[C@H](O)[C@H](CC1CCCCC1)NC(=O)[C@H](Cc1c[nH]cn1)NC(=O)[C@H](Cc1ccccc1)NC(=O)[C@@H](C)NC(=O)OCc1ccccc1` [Example 69, Cbz-D-Ala-Phe-His Amide of 2(S)-Amino-l-cyclohexyl-3(R), 4(S)-dihydroxy-6-methylheptane], 0.81 nM; under `CC(C)C[C@H](O)[C@H](O)[C@H](CC1CCCCC1)NC(=O)[C@H](Cc1c[nH]cn1)NC(=O)[C@H](Cc1ccccc1)NC(=O)[C@@H](C)N` [Example 70, H-D-Ala-Phe-His Amide of 2(S)-Amino-l-cyclohexyl-3(R), 4(S)-dihydroxy-6-methylheptane Diacetic Acid Salt], 2.5 nM.
Consider `CC(C)C[C@H](O)[C@H](O)[C@H](CC1CCCCC1)NC(=O)[C@H](Cc1c[nH]cn1)NC(=O)[C@H](Cc1ccccc1)NC(=O)CC(C)(C)NC(=O)OCc1ccccc1` [Example 74, Cbz-[(β,β-di-Me)-β-Ala]-Phe-His Amide of 2(S)-Amino-1-cyclohexyl-3(R),4(S)-dihydroxy-6-methylheptane], for which the midpoint of inhibition, the IC50, lay at 0.7 nM.
For `CC(C)C[C@H](O)[C@H](O)[C@H](CC1CCCCC1)NC(=O)[C@H](Cc1c[nH]cn1)NC(=O)[C@H](Cc1ccccc1)NC(=O)CC(C)(C)N` [Example 75, H-[(β,β-di-Me)-β-Ala]-Phe-His Amide of 2(S)-Amino-1-cyclohexyl-3(R),4(S)-dihydroxy-6-methylheptane Diacetic Acid Salt] the value was 0.4 nM.
Under `CC(C)C[C@H](O)[C@H](O)[C@H](CC1CCCCC1)NC(=O)[C@H](Cc1c[nH]cn1)NC(=O)[C@H](Cc1ccccc1)NC(=O)[C@@H]1CCCN1C(=O)OCc1ccccc1` [Example 76, Cbz-Pro-Phe-His Amide of 2(S)-Amino-l-cyclohexyl-3(R), 4(S)-dihydroxy-6-methyl- heptane] stands 0.5 nM; under `CC(C)C[C@H](O)[C@H](O)[C@H](CC1CCCCC1)NC(=O)[C@H](Cc1c[nH]cn1)NC(=O)[C@H](Cc1ccccc1)NC(=O)[C@@H]1CCCN1` [Example 77, H-Pro-Phe-His Amide of 2(S)-Amino-l-cyclohexyl-3(R), 4(S)-dihydroxy-6-methylheptane Acetic Acid Salt], 0.98 nM; under `CC(C)C[C@H](O)[C@H](O)[C@H](CC1CCCCC1)NC(=O)[C@H](Cc1c[nH]cn1)NC(=O)[C@H](Cc1ccccc1)NC(=O)OCc1ccccc1` [Example 83, Cbz-Phe-His Amide of 2(S)-Amino-l-cyclohexyl-3(R), 4(S)-dihydroxy-6-methylheptane], 0.6 nM.
In the case of `CC(C)C[C@H](O)[C@H](O)[C@H](CC1CCCCC1)NC(=O)[C@H](Cc1c[nH]cn1)NC(=O)[C@@H](N)Cc1ccccc1` [Example 84, Phe-His Amide of 2(S)-Amino-l-cyclohexyl-3(R),4(S)-dihydroxy-6-methylheptane], the half-maximal inhibitory concentration (IC50) is 10 nM.
Under `CC(C)C[C@H](O)[C@H](O)[C@H](CC1CCCCC1)NC(=O)[C@H](Cc1c[nH]cn1)NC(=O)[C@H](Cc1ccccc1)NC(=O)C(C)(C)N` [Example 85, alpha-Aminoisobutyryl-Phe-His Amide of 2(S)-Amino-1-cyclohexyl-3(R),4(S)-dihydroxy-6-methylheptane] stands 0.4 nM; under `CC(C)C[C@H](O)[C@H](O)[C@H](CC1CCCCC1)NC(=O)[C@H](Cc1c[nH]cn1)NC(=O)[C@H](Cc1ccccc1)NC(=O)c1cnccn1` [Example 87, (Pyrazin-2-yl-carbonyl)-Phe-His Amide of 2(S)-Amino-1-cyclohexyl-3(R),4(S)-dihydroxy-6-methylheptane], 0.55 nM; under `CC(C)C[C@H](NC(=O)[C@H](Cc1ccccc1)NC(=O)Cc1c[nH]cn1)C(=O)N[C@@H](CC1CCCCC1)[C@@H](O)[C@@H](O)CC(C)C` [Example 88, (Imidazol-4-yl-acetyl)-Phe-Leu Amide of 2(S)-Amino-1-cyclohexyl-3(R),4(S)-dihydroxy-6-methylheptane], 0.6 nM.
For `CC(C)C[C@H](O)[C@H](O)[C@H](CC1CCCCC1)NC(=O)[C@H](Cc1c[nH]cn1)NC(=O)[C@H](Cc1ccccc1)NC(=O)c1ccc[nH]1` [Example 89, (Pyrrol-2-yl-carbonyl)-Phe-His Amide of 2(S)-Amino-1-cyclohexyl-3(R),4(S)-dihydroxy-6-methylheptane] the value was 1 nM.
For `C=CCOC(=O)N[C@@H](Cc1ccccc1)C(=O)N[C@@H](CC(C)C)C(=O)N[C@@H](CC1CCCCC1)[C@@H](O)[C@@H](O)CC(C)C` [Example 90, Allyloxycarbonyl-Phe-Leu Amide of 2(S)-Amino-l-cyclohexyl-3(R),4(S)-dihydroxy-6-methylheptaine] the value was 0.4 nM.
Turning to `CC(C)C[C@H](NC(=O)[C@H](Cc1ccccc1)NC(=O)OCCCOC(=O)CNC(=O)OCc1ccccc1)C(=O)N[C@@H](CC1CCCCC1)[C@@H](O)[C@@H](O)CC(C)C` [Example 92, Cbz-Gly Ester of the Resultant Compound of Example 91 (at 3-Hydroxypropyloxy Group)], the IC50 stood at 0.5 nM.
For `CC(C)C[C@H](NC(=O)[C@H](Cc1ccccc1)NC(=O)OCCCOC(=O)CN)C(=O)N[C@@H](CC1CCCCC1)[C@@H](O)[C@@H](O)CC(C)C` [Example 93, H-Gly-Ester of the Resultant Compound of Example 91 (at 3-Hydroxypropyloxy Group)] the value was 0.55 nM; for `CC(C)C[C@H](NC(=O)[C@H](Cc1ccccc1)NC(=O)OCC(O)CO)C(=O)N[C@@H](CC1CCCCC1)[C@@H](O)[C@@H](O)CC(C)C` (stereo partly drawn) [Example 97, 2(R,S),3-Dihydroxypropyloxycarbonyl-Phe-Leu Amide of 2(S) -Amino-1-cyclohexyl-3(R),4(S)-dihydroxy-6-methylheptane], 0.3 nM; for `CC(C)C[C@H](O)[C@H](O)[C@H](CC1CCCCC1)NC(=O)[C@H](Cc1c[nH]cn1)NC(=O)[C@H](Cc1ccccc1)NC(=O)CO` [Example 103, Hydroxyacetyl-Phe-His Amide of 2(S)-Amino-l-cyclohexyl-3(R),4(S)-dihydroxy-6-methylheptane], 1 nM.
For `CC(C)C[C@H](O)[C@H](O)[C@H](CC1CCCCC1)NC(=O)[C@H](Cc1c[nH]cn1)NC(=O)[C@H](CCc1ccccc1)NC(=O)C(C)C` [Example 108, Isobutyryl-Homo-Phe-His Amide of 2(S)-Amino-l-cyclohexyl-3(R),4(S)-dihydroxy-6-methylheptane] the value was 0.55 nM; for `CC(C)C[C@H](O)[C@H](O)[C@H](CC1CCCCC1)NC(=O)[C@H](Cc1c[nH]cn1)NC(=O)[C@H](Cc1ccccc1)OC(=O)N1CCOCC1` [Example 111, 2(S)-[(4-Morpholinyl)carbonyl]oxy-3-phenylpropionyl-His Amide of 2(S)-Amino-l-cyclohexyl-3(R),4(S)-dihydroxy-6-methylheptane], 0.5 nM.
